The values that follow come from patent US11260012B2, “Preserved silk protein fragment compositions and articles manufactured therefrom” (Evolved By Nature, Inc., priority 2015, dated 2022).

SMILES strings stand for the structures.

Data set [1] in a line: Gel formation with vitamin C derivatives. It is filed as physicochemical. To be noted: for time to gel formation: 100 mg vitamin C derivative in 15 mL of 2% silk solution. How it is done:
The Tables in FIGS. 89A-89B summarize embodiments of gels of the present disclosure. Ascorbic acid-2-glucoside was the most successful vitamin C derivative at gel formation with gel being formed in a 2% silk solution in 3 days. […] In all cases 100 mg of vitamin C derivative was mixed in 15 mL of 2% silk solution, and all gels had the same appearance as gels created with ascorbic acid.
Gels were also cast with combinations of two vitamin C options. In each case, at least one of the vitamin C options was known to cause gelation (L-ascorbic acid or ascorbic acid-2-glucoside). All combination gels were able to gel at 1% total vitamin C additive concentration. […] Without wishing to be bound by theory, it appears there is a relationship between vitamin C concentration, silk concentration, and gelation. An increase in vitamin C at a given concentration of silk will result in a longer time to gelation or inhibit gelation. This may be due to the vitamin C molecule physically blocking interaction between silk protein fragments or cross-linking of silk protein. Modification to pH may allow additional concentrations of vitamin C and derivatives thereof to be added.
Ascorbyl tetraisopalmitate is a highly viscous, oil soluble liquid that might need the help of an emulsifier to possible dissolve in aqueous silk solution.

Data set [2] deals with C. albicans and A. brasiliensis. As to the kind of experiment: Challenge testing of preservative effect, antifungal (Method A or Method B). It is filed as cell-based. Here is the method: Challenge testing of various compositions of the present disclosure to determine preservative effects was performed using the following methods: (1) Method A or (2) Method B. As used herein, a “count” refers to a typical measurement for measuring microbial (i.e., bacterial and fungal) growth.
Method B: • (1) Bacteria were evaluated and were considered to meet a threshold requirement by the following parameters: (i) […] measured no less than 3 log reduction from the initial calculated count after an incubation period of 14 days (i.e., 2 weeks), and (ii) bacteria measured no increase from an incubation period starting at the 14 day count and lasting until the 28 day count (i.e., 2 week incubation period of a 4 week/1 month experiment). • (2) C. albicans was evaluated and considered to meet a threshold requirement by the following parameters: (i) […] measured no less than a 1 log reduction after a 14 day incubation period, and (ii) C. albicans measured no increase from an incubation period starting at the 14 day count and lasting until the to the 28 day count (i.e., 2 week incubation period of a 4 week/1 month experiment). • (3) A. brasiliensis was evaluated and considered to meet a threshold requirement by the following parameters: A. brasiliensis measured no increase from the initial calculated count after an incubation period of 14 days (i.e., a 2 week incubation) and an incubation period of 28 days (i.e., a 4 week/1 month incubation).
Using Method A described above, if the formulation meets the requirements defined under Method A, the microbiological risk is considered to be tolerable (the cosmetic product is protected against microbial proliferation that may present a potential risk for the user) and the cosmetic product is deemed to meet the requirements of this International Standard without additional rationale.
For example, the pump is considered a protective device for risk reduction, i.e., prevention against bacterial and/or fungal growth.

Data set [3] can be described thus: HPLC chromatograms of vitamin C degradation, aged silk films vs unstabilized vitamin C. To be noted: after 1 hour at ambient conditions without chemical stabilization. It counts as physicochemical. How it is done: FIGS. 36A and 36B show two HPLC chromatograms from samples comprising vitamin C. […] No degradation products were visible. FIG. 59 is a table summarizing the vitamin C concentration in silk protein fragment-films (2% silk films air dried at RT) of the present disclosure. In FIG. 59 processing conditions included 100° C. extraction for 20 min, RT rinse, LiBr in 60° C. oven for 4-6 hours. FIG. 60 is a table summarizing the stability of vitamin C in chemically stabilized solutions. FIGS. 89A-89B are tables summarizing vitamin C stability in SPF gels without chemical stabilizers as compared to chemically stabilized vitamin C in competitive anti-aging skincare products. […] Without wishing to be bound by theory, it appears there is a relationship between vitamin C concentration, silk concentration, and gelation. An increase in vitamin C at a given concentration of silk will result in a longer time to gelation or inhibit gelation. This may be due to the vitamin C molecule physically blocking interaction between silk protein fragments or cross-linking of silk protein.

The mark [4] stands for this setting: in USSSC formulation, concentration of 0.1%.

Take `O=C1O[C@H]([C@@H](O)CO)C(O)=C1O[C@H]1O[C@H](CO)[C@@H](O)[C@H](O)[C@H]1O` [Ascorbic acid-2-glucoside, Ascorbic Acid-2-Glucoside]: in data set [1], the “time to gel formation” value was determined as 3 days.

With `CCCCCCCCC(CCCCCC)C(=O)OC[C@H](OC(=O)C(CCCCCC)CCCCCCCC)[C@H]1OC(=O)C(OC(=O)C(CCCCCC)CCCCCCCC)=C1OC(=O)C(CCCCCC)CCCCCCCC` (stereo partly drawn) [Ascorbyl tetraisopalmitate, Ascorbyl Tetraisopalmitate], the “ability to dissolve or disperse in aqueous silk solution” value in data set [1] is listed as “unable to dissolve or be dispersed”.

Regarding `COc1ccc(C(=O)[O-])cc1.[Na+]` [Sodium anisate], the antifungal preservative effectiveness result in data set [2] (in SER formulation, folded in after gelation, 0.5-1.0%, pH of ˜5.2-5.9, with lemongrass or rosehip oil) is on record as “effective antifungal preservative”; in data set [2] (in SSC formulation, folded in after gelation, 0.1-1.0% and pH of 4.2-5.9) it was “effective antifungal preservative”; in data set [2] (in USSSC formulation, folded in after gelation, 0.5-1.0% and pH of 4.2-5.9), “effective antifungal preservative”.

Take `O=C1O[C@H]([C@@H](O)CO)C([O-])=C1OP(=O)([O-])[O-].[Na+].[Na+].[Na+]` [Sodium ascorbyl phosphate from Aromantic, Sodium Ascorbyl Phosphate]: the “time to gel formation” value in data set [1] was “failed to create a gel”.

Regarding `O=C1O[C@H]([C@@H](O)CO)C([O-])=C1OP(=O)([O-])[O-].[Na+].[Na+].[Na+]` [Sodium ascorbyl phosphate from DSM supplier], the “time to gel formation” value in data set [1] was 28 days.

In the case of `O=C([O-])c1ccccc1.[Na+]` [Sodium benzoate], the antifungal preservative effectiveness entry in data set [2] (in SER formulation, concentration of 0.1% and pH of 3.28) is “effective antifungal preservative”; in data set [2] (in SSC formulation, concentration of 0.1% and pH of 3.7 and 4.2), “effective antifungal preservative”; in data set [2] (setting [4]), “effective antifungal preservatives”.

On to `C/C=C/C=C/C(=O)[O-].[K+]` [potassium sorbate], for which the antifungal preservative effectiveness entry in data set [2] (setting [4]) was “effective antifungal preservatives”.

For `O=C1O[C@H]([C@@H](O)CO)C(O)=C1O` [vitamin C, L-ascorbic acid], the “vitamin C degradation products in HPLC chromatogram” value in data set [3] is recorded as “degradation products are visible”.
